Data taken from ChEMBL document CHEMBL3885861, “Open TG-GATES”.

Species: Rattus norvegicus
Assay: Open TG-GATES - Regimen: Single
Format: toxicity, organism-based, Sprague-Dawley
Set-up: regimen Single, gender Male, age 6 weeks
Settings: in vivo, po, 20 mg/kg, route gavage, dose level Low; for APTT / Bas / Eos / Fbg / Hb / Ht / Lym / MCH / MCHC / MCV / Mono / Neu / PT / Plat / RBC / Ret / WBC: tissue Blood; for KIDNEY_L / KIDNEY_R / KIDNEY_TOTAL: tissue Kidney; for LIVER: tissue Liver; for A/G / ALP / ALT / AST / BUN / CRE / Ca / Cl / DBIL / GLC / IP / K / LDH / Na / PL / RALB / TBIL / TC / TG / TP / gamma-GTP: tissue Plasma

With `CCc1oc2ccccc2c1C(=O)c1cc(Br)c(O)c(Br)c1` [BENZBROMARONE] the TERMINAL_BW (3 h) was 212.8 g, the APTT (3 h) was 16.3 s and the Bas (3 h) was 0%. For the same compound, the Eos (3 h) was 0.6%, the Fbg (3 h) was 237.6 mg/dL and the Hb (3 h) was 13.8 g/dL. The Ht (3 h) was 41%, the Lym (3 h) was 81.2% and the MCH (3 h) was 21.7 pg. The MCHC (3 h) was 33.6%, the MCV (3 h) was 64.6 fL and the Mono (3 h) was 8.4%. The Neu (3 h) was 9.8%, the PT (3 h) was 11.8 s and the Plat (3 h) was 106.4 x10_4/uL. For the same compound, the RBC (3 h) was 634.6 x10_4/ul, the Ret (3 h) was 7.7% and the WBC (3 h) was 91.2 x10_2/uL. For the same compound, the KIDNEY_L (3 h) was 0.9 g, the KIDNEY_R (3 h) was 1 g and the KIDNEY_TOTAL (3 h) was 1.9 g. For the same compound, the LIVER (3 h) was 10.1 g, the A/G (3 h) was 2.3 and the ALP (3 h) was 902 IU/L. For the same compound, the ALT (3 h) was 33.6 IU/L, the AST (3 h) was 62 IU/L and the BUN (3 h) was 11.2 mg/dL. The CRE (3 h) was 0.6 mg/dL, the Ca (3 h) was 10.7 mg/dL and the Cl (3 h) was 103.4 meq/L. It also gave a DBIL (3 h) of 0.034 mg/dL, a GLC (3 h) of 195.4 mg/dL and an IP (3 h) of 9.5 mg/dL. The K (3 h) was 4.8 meq/L, the LDH (3 h) was 81.6 IU/L and the Na (3 h) was 139 meq/L. The PL (3 h) was 147 mg/dL, the RALB (3 h) was 3.9 g/dL and the TBIL (3 h) was 0.3 mg/dL. The TC (3 h) was 79.6 mg/dL, the TG (3 h) was 81.2 mg/dL and the TP (3 h) was 5.6 g/dL. The gamma-GTP (3 h) was 1 IU/L, the TERMINAL_BW (6 h) was 212.2 g and the APTT (6 h) was 16.1 s. For the same compound, the Bas (6 h) was 0%, the Eos (6 h) was 1.2% and the Fbg (6 h) was 228 mg/dL. The Hb (6 h) was 13.8 g/dL, the Ht (6 h) was 41.2% and the Lym (6 h) was 79.4%. For the same compound, the MCH (6 h) was 21.6 pg, the MCHC (6 h) was 33.5% and the MCV (6 h) was 64.5 fL. The Mono (6 h) was 7%, the Neu (6 h) was 12.6% and the PT (6 h) was 12.1 s. For the same compound, the Plat (6 h) was 113.8 x10_4/uL, the RBC (6 h) was 639.4 x10_4/ul and the Ret (6 h) was 7.7%. It also gave a WBC (6 h) of 111.3 x10_2/uL, a KIDNEY_L (6 h) of 1 g and a KIDNEY_R (6 h) of 1 g. It also gave a KIDNEY_TOTAL (6 h) of 2 g, an LIVER (6 h) of 9.9 g and an A/G (6 h) of 2.2. For the same compound, the ALP (6 h) was 710.4 IU/L, the ALT (6 h) was 28.8 IU/L and the AST (6 h) was 59.4 IU/L. It also gave a BUN (6 h) of 11.2 mg/dL, a CRE (6 h) of 0.4 mg/dL and a Ca (6 h) of 10.5 mg/dL. The Cl (6 h) was 103.2 meq/L, the DBIL (6 h) was 0.002 mg/dL and the GLC (6 h) was 183 mg/dL. It also gave an IP (6 h) of 9.6 mg/dL, a K (6 h) of 5.1 meq/L and an LDH (6 h) of 90 IU/L. The Na (6 h) was 138.2 meq/L, the PL (6 h) was 136.4 mg/dL and the RALB (6 h) was 3.8 g/dL. For the same compound, the TBIL (6 h) was 0.4 mg/dL, the TC (6 h) was 75 mg/dL and the TG (6 h) was 75.4 mg/dL. The TP (6 h) was 5.6 g/dL, the gamma-GTP (6 h) was 1 IU/L and the TERMINAL_BW (9 h) was 210.1 g. It also gave an APTT (9 h) of 15.6 s, a Bas (9 h) of 0% and an Eos (9 h) of 1%. For the same compound, the Fbg (9 h) was 234.6 mg/dL, the Hb (9 h) was 13.8 g/dL and the Ht (9 h) was 40.9%. The Lym (9 h) was 84.2%, the MCH (9 h) was 22.1 pg and the MCHC (9 h) was 33.8%. The MCV (9 h) was 65.5 fL, the Mono (9 h) was 6.2% and the Neu (9 h) was 8.8%. It also gave a PT (9 h) of 12.2 s, a Plat (9 h) of 113.6 x10_4/uL and an RBC (9 h) of 625.2 x10_4/ul. It also gave a Ret (9 h) of 7.6%, a WBC (9 h) of 103.5 x10_2/uL and a KIDNEY_L (9 h) of 1 g. For the same compound, the KIDNEY_R (9 h) was 1 g, the KIDNEY_TOTAL (9 h) was 1.9 g and the LIVER (9 h) was 9.3 g. For the same compound, the A/G (9 h) was 2.1, the ALP (9 h) was 840.2 IU/L and the ALT (9 h) was 29.6 IU/L. The AST (9 h) was 60 IU/L, the BUN (9 h) was 10 mg/dL and the CRE (9 h) was 0.5 mg/dL. The Ca (9 h) was 10.1 mg/dL, the Cl (9 h) was 104.2 meq/L and the DBIL (9 h) was 0.008 mg/dL. It also gave a GLC (9 h) of 194.4 mg/dL, an IP (9 h) of 10.5 mg/dL and a K (9 h) of 4.8 meq/L. It also gave an LDH (9 h) of 86.6 IU/L, a Na (9 h) of 138.4 meq/L and a PL (9 h) of 119.4 mg/dL. It also gave an RALB (9 h) of 3.8 g/dL, a TBIL (9 h) of 0.4 mg/dL and a TC (9 h) of 67.8 mg/dL. For the same compound, the TG (9 h) was 44 mg/dL, the TP (9 h) was 5.7 g/dL and the gamma-GTP (9 h) was 1 IU/L. For the same compound, the TERMINAL_BW (24 h) was 225.2 g, the APTT (24 h) was 16.5 s and the Bas (24 h) was 0%. For the same compound, the Eos (24 h) was 1.6%, the Fbg (24 h) was 229 mg/dL and the Hb (24 h) was 13.9 g/dL. The Ht (24 h) was 41.3%, the Lym (24 h) was 78.2% and the MCH (24 h) was 21.8 pg. For the same compound, the MCHC (24 h) was 33.7%, the MCV (24 h) was 64.8 fL and the Mono (24 h) was 7.8%. For the same compound, the Neu (24 h) was 13%, the PT (24 h) was 12.1 s and the Plat (24 h) was 112.8 x10_4/uL. The RBC (24 h) was 636.8 x10_4/ul, the Ret (24 h) was 7.2% and the WBC (24 h) was 103.7 x10_2/uL. It also gave a KIDNEY_L (24 h) of 1 g, a KIDNEY_R (24 h) of 1 g and a KIDNEY_TOTAL (24 h) of 2 g. It also gave an LIVER (24 h) of 11.3 g, an A/G (24 h) of 2 and an ALP (24 h) of 915.4 IU/L. It also gave an ALT (24 h) of 37 IU/L, an AST (24 h) of 62.6 IU/L and a BUN (24 h) of 18.6 mg/dL. For the same compound, the CRE (24 h) was 0.6 mg/dL, the Ca (24 h) was 10.5 mg/dL and the Cl (24 h) was 105.2 meq/L. The DBIL (24 h) was 0.04 mg/dL, the GLC (24 h) was 184.2 mg/dL and the IP (24 h) was 7.8 mg/dL. It also gave a K (24 h) of 5.4 meq/L, an LDH (24 h) of 105.4 IU/L and a Na (24 h) of 138.4 meq/L. It also gave a PL (24 h) of 161.2 mg/dL, an RALB (24 h) of 4 g/dL and a TBIL (24 h) of 0.3 mg/dL. It also gave a TC (24 h) of 83.2 mg/dL, a TG (24 h) of 131 mg/dL and a TP (24 h) of 6 g/dL. It also gave a gamma-GTP (24 h) of 1.4 IU/L.
